Source: BindingDB's records for patent US12297186 (Agomab Spain, S.L.U., 2025)

Biological target: T1, TGF-beta receptor type-1 (Homo sapiens, UniProt P36897)
T1 sequence (P36897 whole entry): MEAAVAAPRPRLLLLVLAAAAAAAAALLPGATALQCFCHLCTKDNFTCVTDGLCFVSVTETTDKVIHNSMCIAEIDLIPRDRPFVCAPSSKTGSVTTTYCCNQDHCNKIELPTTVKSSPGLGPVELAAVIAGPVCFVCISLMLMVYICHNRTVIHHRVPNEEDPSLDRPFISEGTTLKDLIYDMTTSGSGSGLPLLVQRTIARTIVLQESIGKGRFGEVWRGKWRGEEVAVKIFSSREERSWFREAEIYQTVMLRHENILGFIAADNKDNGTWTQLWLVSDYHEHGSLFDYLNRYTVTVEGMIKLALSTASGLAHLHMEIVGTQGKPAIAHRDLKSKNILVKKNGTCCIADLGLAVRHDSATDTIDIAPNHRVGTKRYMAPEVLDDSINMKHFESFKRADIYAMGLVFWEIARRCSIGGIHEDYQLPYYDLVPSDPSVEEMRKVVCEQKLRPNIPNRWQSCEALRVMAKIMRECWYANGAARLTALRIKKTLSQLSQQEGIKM
Assay: In Vitro Enzyme Assay
Method: Human TGFβl R-1 inhibition experiments were carried out in a white 384-microplate low flange (Corning 3572) with ADP-Glo kinase Assay Kit (Promega V9101) and TGβR-1 Kinase Enzyme System (Promega V4092). […] The reaction mixture was incubated in gentle shaking for 120 min at RT, after incubation of 10 μL of ADP-Glo Reagent was added and incubated in gentle shaking for 40 min at RT. 20 μL of Kinase Detection Reagent was added and plate was incubated in gentle shaking for 30 min at RT. Luminiscence (1000 ms) was measured in Perkin Elmer EnSpire Multimode plate reader.

IC50 | Structure (SMILES)
in the range around 450 nM | CC1C=C(CNC(=O)Cn2cc(-c3ccnc4ccccc34)c(-c3ccccn3)n2)C=CC1 (centres undefined) [US12297186, Example 10]
in the range around 450 nM | O=C(Cn1cc(-c2ccnc3ccccc23)c(-c2ccccn2)n1)NCC1=CC(F)CC=C1 (centres undefined) [US12297186, Example 11]
in the range around 450 nM | O=C(Cn1cc(-c2ccnc3ccccc23)c(-c2ccccn2)n1)NCC1=CC(Cl)CC=C1 (centres undefined) [US12297186, Example 12]
in the range around 450 nM | N#CC1C=C(CNC(=O)Cn2cc(-c3ccnc4ccccc34)c(-c3ccccn3)n2)C=CC1 (centres undefined) [US12297186, Example 13]
